Several values for one entry are separate records, joined by “and”; a condition that tells them apart may be missing. Identical values can stand only once. Like-named read-outs stand apart in the source and are kept apart here.
Columns and labels:
rGAT1WT [1] = molecular target: T1, rGAT1WT (Rattus norvegicus, UniProt P23978); experiment: Inhibition of 3H-GABA uptake through rGAT1WT; type: cell-based; conditions: rGAT1WT; for 3[H]GABA uptake (% of uninhibited sample): replicates T1-T6
Protocol: (§1) […]. After 15 min, the uptake was arrested with 100 µl of ice-cold assay buffer and washed two times with the same buffer. The cells were solubilized for 1 h in 100 µl of 20 mM DDM and 2 mM CHS, and 50 µl of scintillant was added to the solubilized material. Counts were measured using a MicroBeta scintillation counter. Uninfected cells were used as a control. The background-subtracted dose–response curves were plotted as log [inhibitor] versus response using GraphPad Prism (version 5.0.1) and IC50 values were determined. The Ki values were calculated using Cheng-Prusoff’s equation. […] The data were analyzed using GraphPad Prism (version 5.0.1).

rGAT1EM [2] = molecular target: T2, rGAT1EM (Rattus norvegicus, UniProt P23978, D482E/E486D/F312Y/N483D/Q485R/R491P/S490F/V488I/Y481S); experiment: MS binding assay (LC-ESI-MS/MS saturation) with rGAT1EM expressing membranes; conditions: for total binding / non-specific binding: rGAT1EM; for total binding: triplicate; for non-specific binding: in the presence of 100 mM GABA
T2 sequence (P23978 with tags, fused parts or gaps F312Y/Y481S/D482E/N483D/Q485R/E486D/V488I/S490F/R491P): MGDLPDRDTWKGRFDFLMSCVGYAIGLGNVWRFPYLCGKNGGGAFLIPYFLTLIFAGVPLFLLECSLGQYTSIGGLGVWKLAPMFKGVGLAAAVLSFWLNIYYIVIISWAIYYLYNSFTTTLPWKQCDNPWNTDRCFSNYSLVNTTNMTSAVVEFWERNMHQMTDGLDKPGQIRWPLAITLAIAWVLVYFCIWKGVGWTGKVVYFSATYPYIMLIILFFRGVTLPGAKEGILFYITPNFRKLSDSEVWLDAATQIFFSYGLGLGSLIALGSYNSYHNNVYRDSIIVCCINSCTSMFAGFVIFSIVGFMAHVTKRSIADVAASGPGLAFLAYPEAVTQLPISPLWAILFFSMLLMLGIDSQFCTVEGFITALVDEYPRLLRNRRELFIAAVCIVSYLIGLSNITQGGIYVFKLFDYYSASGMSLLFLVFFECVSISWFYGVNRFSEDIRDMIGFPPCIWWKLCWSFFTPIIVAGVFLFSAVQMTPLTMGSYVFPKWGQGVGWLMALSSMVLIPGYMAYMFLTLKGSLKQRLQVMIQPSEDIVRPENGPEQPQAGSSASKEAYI
Protocol: (§2) The cell suspension was sonicated, the lysate was centrifuged at 21,000×g to separate the cell debris and 1 ml of the supernatant was aliquoted into each of forty 1.5 ml microfuge tubes. The membrane suspension was spun at 49,000×g for 90 min in a TLA100.1 rotor (Beckman) followed by flash-freezing and storage at −80 °C.
(§3) Binding experiments were performed as described unless stated otherwise. Aliquots of rGAT1 or hGAT1[53] membrane preparations were defrosted, diluted in 20 ml 50 mM Tris-citrate buffer containing 1 M NaCl, pH 7.1 (assay buffer) and centrifuged (50,000×g, 4 °C, 20 min). After resuspension of the pellet in assay buffer, saturation experiments with NO711 were performed in triplicate samples (about 10 µg protein) in a total assay volume of 250 µl. […] Incubation was performed for 40 min at 37 °C; subsequently, 200 µl aliquots of the binding samples were transferred onto 96-well filter plates and filtrated under vacuum, followed by rapid washing of the filters with ice-cold 0.9% NaCl (3 × 150 µl). The filter plates were then dried (60 min, 50 °C) and eluted with 3 × 100 µl methanol (containing 1.43 nM D10-NO711). […] Analysis of the binding data was performed with GraphPad Prism (version 6.0.7). The results are based on at least three independent saturation experiments for each GAT1 species.

rGAT1WT [3] = molecular target: T1, rGAT1WT; experiment: MS binding assay (LC-ESI-MS/MS saturation) with rGAT1WT expressing membranes; conditions: for total binding / non-specific binding: rGAT1WT; for total binding: triplicate; for non-specific binding: in the presence of 100 mM GABA
Protocol: as §2, §3

rGAT1EM [4] = molecular target: T2, rGAT1EM; experiment: Inhibition of 3H-GABA uptake through rGAT1EM; type: cell-based; conditions: rGAT1EM; for 3[H]GABA uptake (% of uninhibited sample): replicates T1-T6
Protocol: as §1

[5] = calculated using Cheng-Prusoff's equation

## O=C(O)C1=CCCN(CCON=C(c2ccccc2)c2ccccc2)C1 [NO711]
rGAT1WT [1]
  IC50: 0.563 µM
rGAT1WT [1]; [5]
  Ki: 0.325 ± 0.035 µM
rGAT1WT [1]; inhibitor 1 nM, 0.001 µM
  3[H]GABA uptake (% of uninhibited sample): 91.7343% and 91.298% and 89.6982% and 104.496% and 107.442% and 95.8793%
rGAT1WT [1]; inhibitor 10 nM, 0.01 µM
  3[H]GABA uptake (% of uninhibited sample): 89.0619% and 103.351% and 105.969% and 101.46% and 106.551% and 93.6068%
rGAT1WT [1]; inhibitor 30 nM, 0.03 µM
  3[H]GABA uptake (% of uninhibited sample): 83.2626% and 81.7356% and 90.8981% and 90.6072% and 95.952% and 94.6794%
rGAT1WT [1]; inhibitor 100 nM, 0.1 µM
  3[H]GABA uptake (% of uninhibited sample): 91.189% and 83.9535% and 82.5718% and 49.5576% and 81.2629% and 73.9547%
rGAT1WT [1]; inhibitor 500 nM, 0.5 µM
  3[H]GABA uptake (% of uninhibited sample): 55.0115% and 49.6303% and 48.5396% and 53.3026% and 54.4298% and 46.4671%
rGAT1WT [1]; inhibitor 1000 nM, 1 µM
  3[H]GABA uptake (% of uninhibited sample): 39.1225% and 40.286% and 41.9222% and 36.8319% and 37.6318% and 37.6682%
rGAT1WT [1]; inhibitor 3000 nM, 3 µM
  3[H]GABA uptake (% of uninhibited sample): 18.3614% and 14.2165% and 17.0888% and 16.5071%
rGAT1EM [2]; rGAT1EM membranes
  BMAX (MS binding assay): 212.4 ± 30.3 pmol/mg protein
  Kd: 0.08 µM and 0.0807 µM
rGAT1EM [2]; c NO711 2.5 nM
  total binding: 0.0853 nM and 0.0717 nM and 0.0765 nM
rGAT1EM [2]; c NO711 5 nM
  total binding: 0.175 nM and 0.157 nM and 0.182 nM
rGAT1EM [2]; c NO711 10 nM
  total binding: 0.266 nM and 0.298 nM and 0.282 nM
rGAT1EM [2]; c NO711 20 nM
  total binding: 0.414 nM and 0.405 nM and 0.393 nM
rGAT1EM [2]; c NO711 40 nM
  non-specific binding: 0.0146 nM and 0.0116 nM and 0.0148 nM
  total binding: 0.654 nM and 0.656 nM and 0.82 nM
rGAT1EM [2]; c NO711 80 nM
  non-specific binding: 0.0357 nM and 0.0322 nM and 0.0377 nM
  total binding: 0.825 nM and 0.877 nM and 0.867 nM
rGAT1EM [2]; c NO711 160 nM
  non-specific binding: 0.0681 nM and 0.0747 nM and 0.0767 nM
  total binding: 1.22 nM and 1.29 nM and 1.33 nM
rGAT1EM [2]; c NO711 320 nM
  non-specific binding: 0.131 nM and 0.148 nM and 0.145 nM
  total binding: 1.55 nM and 1.39 nM and 1.57 nM
rGAT1EM [2]; c NO711 640 nM
  non-specific binding: 0.281 nM and 0.277 nM and 0.282 nM
  total binding: 1.85 nM and 2.19 nM and 2.02 nM
rGAT1EM [2]; c NO711 1280 nM
  non-specific binding: 0.608 nM and 0.571 nM and 0.589 nM
  total binding: 2.47 nM and 2.46 nM
rGAT1WT [3]; rGAT1WT membranes
  BMAX (MS binding assay): 166.4 ± 44.6 pmol/mg protein
  Kd: 0.05 µM and 0.0506 µM
rGAT1WT [3]; c NO711 2.5 nM
  total binding: 0.0851 nM and 0.0839 nM and 0.0992 nM
rGAT1WT [3]; c NO711 5 nM
  total binding: 0.236 nM and 0.225 nM and 0.219 nM
rGAT1WT [3]; c NO711 10 nM
  total binding: 0.387 nM and 0.361 nM
rGAT1WT [3]; c NO711 20 nM
  total binding: 0.566 nM and 0.612 nM and 0.546 nM
rGAT1WT [3]; c NO711 40 nM
  non-specific binding: 0.0154 nM and 0.0179 nM and 0.0127 nM
  total binding: 0.967 nM and 0.954 nM and 0.928 nM
rGAT1WT [3]; c NO711 80 nM
  non-specific binding: 0.0317 nM and 0.0305 nM and 0.029 nM
  total binding: 1.15 nM and 1.08 nM and 1.2 nM
rGAT1WT [3]; c NO711 160 nM
  non-specific binding: 0.0708 nM and 0.0715 nM and 0.07 nM
  total binding: 1.46 nM and 1.6 nM
rGAT1WT [3]; c NO711 320 nM
  non-specific binding: 0.131 nM and 0.157 nM and 0.18 nM
  total binding: 1.95 nM and 1.86 nM and 1.76 nM
rGAT1WT [3]; c NO711 640 nM
  non-specific binding: 0.27 nM and 0.291 nM and 0.276 nM
  total binding: 2.12 nM and 2.1 nM and 2.38 nM
rGAT1WT [3]; c NO711 1280 nM
  non-specific binding: 0.65 nM and 0.595 nM and 0.624 nM
  total binding: 2.77 nM and 2.69 nM and 2.73 nM
rGAT1EM [4]; [5]
  Ki: 0.053 ± 0.004 µM
rGAT1EM [4]; inhibitor 1 nM, 0.001 µM
  3[H]GABA uptake (% of uninhibited sample): 100.216% and 103.239% and 95.1781% and 97.6251% and 105.398% and 98.3447%
rGAT1EM [4]; inhibitor 10 nM, 0.01 µM
  3[H]GABA uptake (% of uninhibited sample): 90.824% and 80.7485% and 91.6877% and 97.5891% and 93.055% and 87.4415%
rGAT1EM [4]; inhibitor 30 nM, 0.03 µM
  3[H]GABA uptake (% of uninhibited sample): 85.8582% and 72.9759% and 75.9266% and 79.8129% and 79.2371% and 88.8089%
rGAT1EM [4]; inhibitor 100 nM, 0.1 µM
  3[H]GABA uptake (% of uninhibited sample): 55.6315% and 53.1846% and 49.5862% and 54.3361% and 66.2109% and 52.321%
rGAT1EM [4]; inhibitor 500 nM, 0.5 µM
  3[H]GABA uptake (% of uninhibited sample): 29.8309% and 34.7967% and 26.0165% and 31.1983% and 34.4368% and 36.2361%
rGAT1EM [4]; inhibitor 1000 nM, 1 µM
  3[H]GABA uptake (% of uninhibited sample): 17.0205% and 18.9637% and 19.4674% and 16.1569% and 19.1796% and 13.2062%
rGAT1EM [4]; inhibitor 3000 nM, 3 µM
  3[H]GABA uptake (% of uninhibited sample): 9.608% and 6.153% and 8.168% and 9.104% (2×) and 11.1191%
rGAT1EM [4]; inhibitor 10000 nM, 10 µM
  3[H]GABA uptake (% of uninhibited sample): 5.11% and 2.879% and 4.39% and 4.246% and 2.375% and 5.038%
rGAT1EM [4]; inhibitor 50000 nM, 50 µM
  3[H]GABA uptake (% of uninhibited sample): 1.763% and 1.439% and 0.8276% and 1.799% and 0.8996% and 1.3674%
rGAT1EM [4]; inhibitor 100000 nM, 100 µM
  3[H]GABA uptake (% of uninhibited sample): 0.5757% and 0.6477% and 0.7197% and 0.5038% (2×) and 0.3598%
rGAT1EM [4]; read-out: IC50 of inhibition of 3H-GABA uptake
  IC50: 0.155 µM
rGAT1EM [4]; read-out: inhibition potencies (K0.5)
  IC50: 0.155 µM

From paper PMC10352132 (Nature Structural & Molecular Biology, 2023)
